Source: paper PMC6273913, “New α-Methylene-γ-Butyrolactone Derivatives as Potential Fungicidal Agents: Design, Synthesis and Antifungal Activities” (Molecules, 2016)
Read-outs that look alike come from different tables or passages of the source.

Experiments:
[1] = tested on: C. lagenarium; assay: Spore germination assay, fungicidal activity against C. lagenarium; assay type: cell-based, Colletotrichum lagenarium
Description: (§1) The fungal pathogens C. lagenarium and B. cinerea was provided by the Agricultural Culture Collection of China (Yangling, Shaanxi, China). C. lagenarium was cultured for 2 weeks at 25 ± 1 °C on potato dextrose agar (PDA) while B. cinerea was cultured at 20 °C on the same medium after being retrieved from the storage tube. Plates were flooded with sterile distilled water, and then conidia were scraped with a glass rod. Mycelial debris was removed by filtration. The spores were harvested and suspended in sterile distilled water containing 0.1% (v/v) Tween 20. The concentration of the spore suspension was adjusted to 1.0 × 10^6 spores/mL with sterilized distilled water following.
(§2) The tested samples (10.0 mg) dissolved in acetone (0.1 mL) were diluted with sterile distilled water to prepare 10.0 mL stock solution, which was further diluted to prepare test solutions in which the final concentration of acetone was <1% (v/v). A series of concentrations of tested samples and one control (1% acetone with sterile distilled water) were separately tested for spore germination of C. lagenarium or B. cinerea. The samples were inoculated with spore suspension of C. lagenarium or B. cinerea containing 1.0 × 10^6 spores/mL. Aliquots of 10 μL of prepared spore suspension were placed on separate glass slides in triplicate. Slides containing the spores were incubated in a moisture chamber at 25 °C for 6~8 h. Each slide was then observed under the microscope for spore germination. Spores were considered to have germinated if the length of the germ tube was at least half the length of the spore. Afterward, spore germination was stopped by applying a drop of lactophenol-cotton blue to the inoculation sites on plates. The numbers of generated spores were counted under a microscope (Olympus BX61, Tokyo, Japan), and the percentage of germinated spores was calculated. Chlorothalonil was used as the positive control.

[2] = tested on: B. cinerea; assay: Spore germination assay, fungicidal activity against B. cinerea; assay type: cell-based, Botrytis cinerea; details: in vitro, n = 3
Description: as §1, §2

[3] = Colletotrichum orbiculare, Table 1, from IC50 in μM, read-out: pIC50, C. lagenarium (converted)
[4] = Colletotrichum orbiculare, in vitro, spore germination, n = 3, read-out: IC50, C. lagenarium
[5] = Colletotrichum orbiculare, Table 2, fungicidal activity against C. lagenarium used for QSAR, read-out: pIC50 (converted)
[6] = Colletotrichum orbiculare, Table 4, experimental, C. lagenarium, read-out: Exp. pIC50 (converted)

4-[2-(Cinnamoyloxy)phenyl]-2-methylenebutyrolactone [Compound 5n]
pIC50, C. lagenarium ([1]; Table 1, from IC50 in μM): −1.012 | pIC50 ([1]; Table 2, fungicidal activity against C. lagenarium used for QSAR): −1.0120 | Exp. pIC50 ([1]; Table 4, experimental, C. lagenarium): −1.0120 | IC50 ([1]; in vitro, spore germination, n = 3, read-out: IC50, C. lagenarium): 10.3 µM | IC50 [2]: 20.6 µM

N#Cc1c(Cl)c(Cl)c(Cl)c(C#N)c1Cl [Chlorothalonil, reference compound]
IC50 [1, 3]: 4.21 µM | IC50 [1, 4]: 4.21 µM | IC50 ([2]; Botrytis cinerea): 8.31 µM

C=C1CC(c2ccc(OC(=O)c3ccccc3Cl)cc2)OC1=O (stereo not shown) [Compound 4a, 4-[4-(2-Chlorobenzoyloxy)phenyl]-2-methylenebutyrolactone]
IC50 [1, 3]: 14 µM | IC50 [1, 5]: 14 µM | IC50 [1, 6]: 14 µM | IC50 [1, 4]: 14 µM | IC50 ([2]; Botrytis cinerea): 29.8 µM | melting point: 187.2 to 187.9 °C

C=C1CC(c2ccc(OC(=O)c3ccc(Cl)cc3)cc2)OC1=O (stereo not shown) [Compound 4c, 4-[4-(4-Chlorobenzoyloxy)phenyl]-2-methylenebutyrolactone]
IC50 [1, 3]: 12.7 µM | IC50 [1, 5]: 12.7 µM | IC50 [1, 6]: 12.7 µM | IC50 [1, 4]: 12.7 µM | IC50 ([2]; Botrytis cinerea): 27.3 µM | melting point: 171.3 to 171.6 °C

C=C1CC(c2ccc(OC(=O)c3ccccc3Br)cc2)OC1=O (stereo not shown) [Compound 4d, 4-[4-(2-Bromobenzoyloxy)phenyl]-2-methylenebutyrolactone]
IC50 [1, 3]: 15.6 µM | IC50 [1, 5]: 15.6 µM | IC50 [1, 6]: 15.6 µM | IC50 [1, 4]: 15.6 µM | IC50 ([2]; Botrytis cinerea): 24.1 µM | melting point: 174.5 to 174.9 °C

C=C1CC(c2ccc(OC(=O)c3ccc(Br)cc3)cc2)OC1=O (stereo not shown) [Compound 4f, 4-[4-(4-Bromobenzoyloxy)phenyl]-2-methylenebutyrolactone]
IC50 [1, 3]: 14.4 µM | IC50 [1, 5]: 14.4 µM | IC50 [1, 6]: 14.4 µM | IC50 [1, 4]: 14.4 µM | IC50 ([2]; Botrytis cinerea): 23 µM | melting point: 175.1 to 175.6 °C

C=C1CC(c2ccc(OC(=O)c3ccc(C#N)cc3)cc2)OC1=O (stereo not shown) [Compound 4h]
IC50 [1, 3]: 65.6 µM | IC50 [1, 5]: 65.6 µM | IC50 [1, 6]: 65.6 µM | IC50 [1, 4]: 65.6 µM | IC50 ([2]; Botrytis cinerea): 77 µM

C=C1CC(c2ccc(OC(=O)c3ccccc3C)cc2)OC1=O (stereo not shown) [Compound 4j, 4-[4-(2-Methylbenzoyloxy)phenyl]-2-methylenebutyrolactone]
IC50 [1, 3]: 192 µM | IC50 [1, 5]: 192 µM | IC50 [1, 6]: 192 µM | IC50 [1, 4]: 192 µM | IC50 ([2]; Botrytis cinerea): 199 µM | melting point: 189.6 to 190.1 °C

C=C1CC(c2ccc(OC(=O)c3ccc(C)cc3)cc2)OC1=O (stereo not shown) [Compound 4l, 4-[4-(4-Methylbenzoyloxy)phenyl]-2-methylenebutyrolactone]
IC50 [1, 3]: 189 µM | IC50 [1, 5]: 189 µM | IC50 [1, 6]: 189 µM | IC50 [1, 4]: 189 µM | IC50 ([2]; Botrytis cinerea): 209 µM | melting point: 184.5 to 185.1 °C

C=C1CC(c2ccc(OC(=O)c3ccccc3OC)cc2)OC1=O (stereo not shown) [Compound 4m, 4-[4-(2-Methoxylbenzoyloxy)phenyl]-2-methylenebutyrolactone]
IC50 [1, 3]: 239 µM | IC50 [1, 5]: 239 µM | IC50 [1, 6]: 239 µM | IC50 [1, 4]: 239 µM | IC50 ([2]; Botrytis cinerea): 243 µM | melting point: 179.8 to 180.4 °C

C=C1CC(c2ccc(OC(=O)c3cccc(OC)c3)cc2)OC1=O (stereo not shown) [Compound 4n, 4-[4-(3-Methoxylbenzoyloxy)phenyl]-2-methylenebutyrolactone]
IC50 [1, 3]: 212 µM | IC50 [1, 5]: 212 µM | IC50 [1, 6]: 212 µM | IC50 [1, 4]: 212 µM | IC50 ([2]; Botrytis cinerea): 224 µM | melting point: 185.7 to 186.2 °C

C=C1CC(c2ccc(OC(=O)C=Cc3ccccc3)cc2)OC1=O (stereo not shown) [Compound 4r, 4-[4-(Cinnamoyloxy)phenyl]-2-methylenebutyrolactone]
IC50 [1, 3]: 44.5 µM | IC50 [1, 5]: 44.5 µM | IC50 [1, 6]: 44.5 µM | IC50 [1, 4]: 44.5 µM | IC50 ([2]; Botrytis cinerea): 56.3 µM

C=C1CC(c2ccccc2O)OC1=O (stereo not shown) [Compound 5, 4-(2-Hydroxyphenyl)-2-methylenebutyrolactone]
IC50 [1, 3]: 239 µM | IC50 [1, 4]: 239 µM | IC50 ([2]; Botrytis cinerea): 280 µM

C=C1CC(c2ccccc2OC(=O)c2ccc(Cl)cc2)OC1=O (stereo not shown) [Compound 5b, 4-[2-(4-Chlorobenzoyloxy)phenyl]-2-methylenebutyrolactone]
IC50 [1, 3]: 17.7 µM | IC50 [1, 5]: 17.7 µM | IC50 [1, 6]: 17.7 µM | IC50 [1, 4]: 17.7 µM | IC50 ([2]; Botrytis cinerea): 34.5 µM | melting point: 208.7 to 209.3 °C

C=C1CC(c2ccccc2OC(=O)c2ccccc2Br)OC1=O (stereo not shown) [Compound 5c, 4-[2-(2-Bromobenzoyloxy)phenyl]-2-methylenebutyrolactone]
IC50 [1, 3]: 15.9 µM | IC50 [1, 5]: 15.9 µM | IC50 [1, 6]: 15.9 µM | IC50 [1, 4]: 15.9 µM | IC50 ([2]; Botrytis cinerea): 34.6 µM | melting point: 204.6 to 205.1 °C

C=C1CC(c2ccccc2OC(=O)c2ccc(Br)cc2)OC1=O (stereo not shown) [Compound 5e, 4-[2-(4-Bromobenzoyloxy)phenyl]-2-methylenebutyrolactone]
IC50 [1, 3]: 15.3 µM | IC50 [1, 5]: 15.3 µM | IC50 [1, 6]: 15.3 µM | IC50 [1, 4]: 15.3 µM | IC50 ([2]; Botrytis cinerea): 36.1 µM | melting point: 184.7 to 185.2 °C

C=C1CC(c2ccccc2OC(=O)c2ccc(C#N)cc2)OC1=O (stereo not shown) [Compound 5f]
IC50 [1, 3]: 79.1 µM | IC50 [1, 5]: 79.1 µM | IC50 [1, 6]: 79.1 µM | IC50 [1, 4]: 79.1 µM | IC50 ([2]; Botrytis cinerea): 95 µM

C=C1CC(c2ccccc2OC(=O)c2ccccc2)OC1=O (stereo not shown) [Compound 5g, 4-(2-Benzoyloxyphenyl)-2-methylenebutyrolactone]
IC50 [1, 3]: 171 µM | IC50 [1, 5]: 171 µM | IC50 [1, 6]: 171 µM | IC50 [1, 4]: 171 µM | IC50 ([2]; Botrytis cinerea): 194 µM | melting point: 166.3 to 167 °C

C=C1CC(c2ccccc2OC(=O)c2ccccc2C)OC1=O (stereo not shown) [Compound 5h, 4-[2-(2-Methylbenzoyloxy)phenyl]-2-methylenebutyrolactone]
IC50 [1, 3]: 216 µM | IC50 [1, 5]: 216 µM | IC50 [1, 6]: 216 µM | IC50 [1, 4]: 216 µM | IC50 ([2]; Botrytis cinerea): 229 µM | melting point: 172.8 to 173.4 °C

C=C1CC(c2ccccc2OC(=O)c2ccc(C)cc2)OC1=O (stereo not shown) [Compound 5j, 4-[2-(4-Methylbenzoyloxy)phenyl]-2-methylenebutyrolactone]
IC50 [1, 3]: 207 µM | IC50 [1, 5]: 207 µM | IC50 [1, 6]: 207 µM | IC50 [1, 4]: 208 µM | IC50 ([2]; Botrytis cinerea): 259 µM | melting point: 181.2 to 181.6 °C

C=C1CC(c2ccccc2OC(=O)c2ccccc2OC)OC1=O (stereo not shown) [Compound 5k, 4-[2-(2-Methoxylbenzoyloxy)phenyl]-2-methylenebutyrolactone]
IC50 [1, 3]: 292 µM | IC50 [1, 5]: 292 µM | IC50 [1, 6]: 292 µM | IC50 [1, 4]: 292 µM | IC50 ([2]; Botrytis cinerea): 307 µM | melting point: 177.8 to 178.6 °C

C=C1CC(c2ccccc2OCCCC)OC1=O (stereo not shown) [Compound 5o, 4-(2-Butoxyphenyl)-2-methylenebutyrolactone]
IC50 [1, 3]: 414 µM | IC50 [1, 5]: 414 µM | IC50 [1, 6]: 414 µM | IC50 [1, 4]: 414 µM | IC50 ([2]; Botrytis cinerea): 457 µM

C=C1CC(c2ccccc2OC(C)C)OC1=O (stereo not shown) [Compound 5q, 4-(2-Isopropoxylphenyl)-2-methylenebutyrolactone]
IC50 [1, 3]: 429 µM | IC50 [1, 5]: 429 µM | IC50 [1, 6]: 429 µM | IC50 [1, 4]: 429 µM | IC50 ([2]; Botrytis cinerea): 446 µM

C=C1CC(c2cccc(OC(=O)c3ccc(Cl)cc3)c2)OC1=O (stereo not shown) [Compound 6b, 4-[3-(4-Chlorobenzoyloxy)phenyl]-2-methylenebutyrolactone]
IC50 [1, 3]: 9.25 µM | IC50 [1, 5]: 9.25 µM | IC50 [1, 6]: 9.25 µM | IC50 [1, 4]: 9.24 µM | IC50 ([2]; Botrytis cinerea): 29.1 µM | melting point: 209.8 to 210.5 °C

C=C1CC(c2cccc(OC(=O)c3ccccc3Br)c2)OC1=O (stereo not shown) [Compound 6c, 4-[3-(2-Bromobenzoyloxy)phenyl]-2-methylenebutyrolactone]
IC50 [1, 3]: 10.3 µM | IC50 [1, 5]: 10.3 µM | IC50 [1, 6]: 10.3 µM | IC50 [1, 4]: 10.3 µM | IC50 ([2]; Botrytis cinerea): 27.4 µM | melting point: 175.3 to 175.8 °C

C=C1CC(c2cccc(OC(=O)c3ccc(Br)cc3)c2)OC1=O (stereo not shown) [Compound 6e, 4-[3-(4-Bromobenzoyloxy)phenyl]-2-methylenebutyrolactone]
IC50 [1, 3]: 9.71 µM | IC50 [1, 5]: 9.71 µM | IC50 [1, 6]: 9.71 µM | IC50 [1, 4]: 9.7 µM | IC50 ([2]; Botrytis cinerea): 27.2 µM | melting point: 168.6 to 169.4 °C

C=C1CC(c2cccc(OC(=O)CC)c2)OC1=O (stereo not shown) [Compound 6m, 4-(3-Propionyloxyphenyl)-2-methylenebutyrolactone]
IC50 [1, 3]: 173 µM | IC50 [1, 5]: 173 µM | IC50 [1, 6]: 173 µM | IC50 [1, 4]: 173 µM | IC50 ([2]; Botrytis cinerea): 203 µM

C=C1CC(c2cccc(OCCC)c2)OC1=O (stereo not shown) [Compound 6p, 4-(3-Propoxylphenyl)-2-methylenebutyrolactone]
IC50 [1, 3]: 266 µM | IC50 [1, 5]: 266 µM | IC50 [1, 6]: 266 µM | IC50 [1, 4]: 266 µM | IC50 ([2]; Botrytis cinerea): 298 µM
